Test [1] addresses T1, FAS TE (Homo sapiens, UniProt P49327).
T1 construct: The unique carboxyl terminal thioesterase domain of fatty acid synthase
Description: Fluorogenic Assay for Detection of FASTE Inhibition (4-MUH substrate). The class given is biochemical. The conditions noted are these: 500 nM FAS TE, 30 min pre-incubation at 37° C. The method, then:
Fluorogenic Assay for Detection of FASTE Inhibition
The synthetic fluorogenic substrate, 4-methylumbelliferyl heptanoate (4-MUH), was purchased from Sigma (St. Louis, Mo.). The reaction mixture consisted of 500 nM FAS TE in buffer (100 mM Tris-HCl, 50 mM NaCl at pH 7.4) which was pre-incubated with 2.5 μL test compounds dissolved in DMSO at final concentrations of […] and/or 0.08-10 μM at 37° C. for 30 minutes. […] 4-MUH incubated without enzyme served as a background control. Results are the average of triplicate time points.

The subject of test [2] is human fibroblast cells. Description: Cell Viability Assay (MTS), human fibroblast cells (HFF). It is filed as cell-based. The conditions noted are these: 48 h. Here is the method:
(§1) Cell Viability Assays for Determination of Test Compound Potencies
(§2) Plates were incubated for 2 h and absorbance was assayed at 490 nm. Background levels of formazan formation were measured in medium alone. IC50 values were derived from dose-response curves.

Test [3] has as its system MB-MDA-231 cells. Put plainly: Cell Viability Assay (MTS), MB-MDA-231. The conditions noted are these: 3 k 231, 48 h. The class given is cell-based. The method, then:
as §1, §2

Setting [4] is: Homo sapiens, Fibroblast, 3 k HFF, read-out: avg 3 k HFF IC50.
[5] abbreviates: Homo sapiens, Fibroblast, 50 k HFF, read-out: avg 50 k HFF IC50.
Where [6] appears, read: 3 k HFF, read-out: avg 3 k HFF IC50.
[7] abbreviates: 50 k HFF, read-out: avg 50 k HFF IC50.

pIC50, pKi: −log10 of the molar value. Like-named read-outs stand apart in the source and are kept apart here. Some results are limits rather than exact numbers.

From patent US8258321B2, “Beta-lactone compounds” (Burnham Institute for Medical Research, priority 2007, dated 2012) come the findings set out here.

The term pKi denotes the negative decadic logarithm of the Ki, by convention in mol/L. As a reminder, the pIC50 is −log10 of the IC50, conventionally taken in molar units.

T1 sequence (P49327 2207-2511 limits assumed): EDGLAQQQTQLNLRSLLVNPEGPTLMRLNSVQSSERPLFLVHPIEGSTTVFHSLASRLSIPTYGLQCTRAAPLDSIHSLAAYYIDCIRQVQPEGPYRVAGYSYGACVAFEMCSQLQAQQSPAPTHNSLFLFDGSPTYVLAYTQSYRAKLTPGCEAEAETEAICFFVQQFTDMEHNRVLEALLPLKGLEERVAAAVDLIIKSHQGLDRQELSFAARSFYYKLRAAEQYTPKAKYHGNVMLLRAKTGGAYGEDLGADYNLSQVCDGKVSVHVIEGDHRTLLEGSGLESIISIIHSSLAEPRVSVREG

Consider `CCCCCCCCCCC[C@H](CC1OC(=O)[C@H]1CCCC)OC(=O)CNC=O` (some centres unmarked), for which, in test [1], the pKi was 6.80. Besides, the values for the pIC50 in test [2] (setting [4]), in test [2] (setting [5]) and in test [3] (48 h) were 4.51, 4.36 and 4.45, respectively.
Consider `C=CCC[C@H](CC1OC(=O)[C@H]1CCCCCC)OC(=O)CNC=O` (some centres unmarked) [listing 1 of 2 here], for which the negative-log Ki (pKi) in test [1] was 7.22. Further, the pIC50 in test [2] (setting [6]) is less than 4.00; in test [2] (setting [7]) it was less than 4.00; in test [3], 4.27.
`CCCCCC[C@@H]1C(=O)OC1C[C@@H](C)OC(=O)CNC=O` (some centres unmarked): the pIC50 in test [2] (setting [4]), in test [2] (setting [5]) and in test [3] (48 h) was less than 4.00 throughout.
With `CCCCCCCCCCC[C@@H](C[C@@H]1OC(=O)[C@H]1CCCCCC)OC(=O)CNC=O`, the pIC50 was 4.70 in test [2] (setting [4]), 4.56 in test [2] (setting [5]) and 5.32 in test [3] (48 h).
`CCCCCCCCCCC[C@@H](C[C@@H]1OC(=O)[C@H]1CCCCCC)OC(=O)CN(C)C` [drawing 152]: the pIC50 is 4.43 in test [2] (setting [6]), 4.31 in test [2] (setting [7]) and 4.57 in test [3].
`CCCCCCCCCCCCC[C@@H](CC1OC(=O)[C@H]1CCCCCC)OC(=O)[C@H](Cc1cnc[nH]1)NC=O` (some centres unmarked) had a pKi in test [1] of 6.77. The pIC50 in test [2] (setting [4]) was 4.80; in test [2] (setting [5]), 4.55; in test [3] (48 h) it was 4.43.
`CCCCCC[C@@H]1C(=O)O[C@H]1C[C@H](CC/C=C/COCCOCCOCC(=O)OCc1ccccc1)OC(=O)[C@H](CC(C)C)NC=O`: in test [1], the pKi was 6.64. Further, the pIC50 in test [2] (setting [4]) was 4.15; in test [2] (setting [5]) it was less than 4.00; in test [3] (48 h), 4.33.
In the case of `CCCCCCCCCCC[C@@H](C[C@@H]1OC(=O)[C@H]1CCCCCC)OC(=O)[C@H](CC(C)C)NC=O`, the values for the pIC50 in test [2] (setting [4]), in test [2] (setting [5]) and in test [3] (48 h) were less than 4.00, less than 4.00 and 4.70, respectively.
In test [1], `CCCCCCCCCCC[C@@H](O)C[C@@H]1OC(=O)[C@H]1CCCCCC` showed a pKi of 6.32. In addition, the pIC50 in test [2] (setting [4]) was 4.39; in test [2] (setting [5]), 4.53; in test [3] (48 h), 4.57.
For `CCCCCCCCCCC[C@@H](CC1OC(=O)[C@H]1CC)OC(=O)CNC=O` (some centres unmarked), the pIC50 in test [2] (setting [4]) was less than 4.00; in test [2] (setting [5]), less than 4.00; in test [3] (48 h) it was 4.05.
`C=CCC[C@H](CC1OC(=O)[C@H]1CCCCCC)OC(=O)CNC=O` (some centres unmarked) [listing 2 of 2 here]: the pIC50 in test [2] (setting [4]), in test [2] (setting [5]) and in test [3] (48 h) was less than 4.00 in each case.
For the compound `C/C=C/CC[C@H](CC1OC(=O)[C@H]1CCCCCC)OC(=O)CNC=O` (some centres unmarked), the pIC50 was 4.40 in test [2] (setting [4]), 4.43 in test [2] (setting [5]) and 4.24 in test [3] (48 h).
Compound `C=CCC[C@H](C[C@@H]1OC(=O)[C@H]1CCCCCC)OC(=O)CNC=O` gave a pKi in test [1] of 6.28.
In test [1], `CCCCCC[C@@H]1C(=O)O[C@H]1C[C@@H](C)OC(=O)CNC=O` showed a pKi of 7.05.
As for `CCCCCCCCCCC[C@@H](C[C@@H]1OC(=O)[C@H]1CCCCCC)OC(=O)c1ccccc1` [drawing 150], the pIC50 in test [2] (setting [6]), in test [2] (setting [7]) and in test [3] was less than 4.00 each time.
Consider `CCCCCCC/C=C/CC[C@@H](C[C@@H]1OC(=O)[C@H]1CCCCCC)OC(=O)[C@H](CC(C)C)NC=O`, for which the pIC50 in test [2] (setting [4]) is 4.36; in test [2] (setting [5]), 4.02; in test [3] (48 h), 4.20.
`CCCCCC[C@@H]1C(=O)O[C@H]1C[C@@H](COS(=O)(=O)c1ccc(C)cc1)OC(=O)CNC=O` gave a pKi in test [1] of 7.00.
With `CCCCCC[C@@H]1C(=O)O[C@H]1C[C@H](CC/C=C/c1ccc(F)cc1)OC(=O)[C@H](CC(C)C)NC=O`, the pKi in test [1] was 6.82. The pIC50 in test [2] (setting [4]) is 4.48; in test [2] (setting [5]) it was 4.30; in test [3] (48 h), 4.85.
In the case of `C/C=C/CC[C@H](C[C@@H]1OC(=O)[C@H]1CCCCCC)OC(=O)[C@@H](NC=O)C(C)C`, the pIC50 in test [2] (setting [4]) was 3.99; in test [2] (setting [5]), less than 4.00.
As for `CCCCCCCCCCC[C@@H](C[C@@H]1OC(=O)[C@H]1CCCCCC)OC(=O)c1ccccc1` [drawing 169], the pIC50 in test [2] (setting [4]), in test [2] (setting [5]) and in test [3] (48 h) was less than 4.00 in each case.
In test [1], `C=CCC[C@@H](C[C@@H]1OC(=O)[C@H]1CCCCCC)OC(=O)[C@H](Cc1ccccc1)NC=O` showed a pKi of 6.66. The pIC50 in test [2] (setting [4]) was 4.13; in test [2] (setting [5]), 4.19; in test [3] (48 h) it was 4.61.
With `CCCCCCCCCCC[C@@H](CC1OC(=O)[C@H]1CCCCCC)OC(=O)CN(C)C` (some centres unmarked) [drawing 171], the pIC50 in test [2] (setting [6]) is 3.98; in test [2] (setting [5]) it was 4.12; in test [3] (48 h), 4.28.
In test [1], `CCCCCCC/C=C/CC[C@@H](C[C@@H]1OC(=O)[C@H]1CCCCCC)OC(=O)[C@H](Cc1ccccc1)NC=O` had a pKi of 6.82. For the same compound, the figures for the pIC50 in test [2] (setting [4]), in test [2] (setting [5]) and in test [3] (48 h) were 4.60, 4.44 and less than 4.00, respectively.
For `CCCCCCCCCCCCC[C@H](CC1OC(=O)[C@@H]1CCCCCC)OC(=O)CNC=O` (some centres unmarked), the pIC50 in test [2] (setting [4]), in test [2] (setting [5]) and in test [3] (48 h) was less than 4.00 throughout.
`CCCCCC[C@@H]1C(=O)O[C@H]1C[C@H](CCCCC)OC(=O)[C@@H](NC=O)C(C)C`: the pIC50 in test [2] (setting [5]) was less than 4.00.
`CCCCCCCCCCC[C@H](C[C@@H]1OC(=O)[C@H]1CC)OC(=O)CNC=O` showed a pKi in test [1] of 6.64. Also, the pIC50 was 5.01 in test [2] (setting [5]) and 5.89 in test [3] (48 h).
Consider `CCCCCCCCCCC[C@H](C[C@@H]1OC(=O)[C@H]1CCCCCC)OC(=O)CNC=O`, for which the results for the pIC50 in test [2] (setting [4]), in test [2] (setting [5]) and in test [3] (48 h) were 4.33, 4.39 and 4.93, respectively.
As for `C/C=C/CC[C@@H](C[C@@H]1OC(=O)[C@H]1CCCCCC)OC(=O)[C@@H](NC=O)C(C)C`, the pIC50 was 4.46 in test [2] (setting [4]), 4.56 in test [2] (setting [5]) and 4.64 in test [3] (48 h).
For `CCCCCCCCCCCCC[C@H](C[C@@H]1OC(=O)[C@@H]1CCCCCC)OC(=O)CNC=O`, the pKi in test [1] is 7.40.
Consider `CCCCCC[C@@H]1C(=O)OC1C[C@@H](COS(=O)(=O)c1ccc(C)cc1)OC(=O)CNC=O` (some centres unmarked), for which the pIC50 in test [2] (setting [4]), in test [2] (setting [5]) and in test [3] (48 h) was less than 4.00 each time.
The compound `C/C=C/CC[C@@H](C[C@@H]1OC(=O)[C@H]1CCCCCC)OC(=O)[C@H](Cc1ccccc1)NC=O` showed a negative logarithm of the Ki (pKi) in test [1] of 6.64. Also, the values for the pIC50 in test [2] (setting [4]), in test [2] (setting [5]) and in test [3] (48 h) were 4.21, 4.28 and 4.42, respectively.
Compound `CCCCCCCCCCC[C@@H](C[C@@H]1OC(=O)[C@H]1CC)OC(=O)CNC=O` gave a pKi in test [1] of 6.80.
